Reference: patent US20240174618A1, “SUBSTITUTED (2-HETEROARYLOXYPHENYL)SULFONATES, SALTS THEREOF AND THEIR USE AS HERBICIDAL AGENTS” (Bayer Aktiengesellschaft, priority 2021, published 2024)

What was measured:
Assay type in all cases: in vivo
[1] = system: Alopecurus myosuroides (ALOMY); experiment: A. Herbicidal pre-emergence efficacy, ALOMY; conditions: scored visually after about 3 weeks vs untreated controls
Outline: (§1)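 Pre-emergence soil-surface spray in sandy loam pots, WP/EC in water plus 0.5% additive, 600 L/ha. Visual % damage rating after about 3 weeks in greenhouse vs. untreated; 0% = control-like, 100% = dead plants. Rates up to 1280 g/ha.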

[2] = system: Matricaria inodora (MATIN); experiment: A. Herbicidal pre-emergence efficacy, MATIN
Outline: as §1

[3] = system: Amaranthus retroflexus (AMARE); experiment: A. Herbicidal pre-emergence efficacy, AMARE
Outline: as §1

[4] = system: Echinochloa crus-galli (ECHCG); experiment: B. Herbicidal post-emergence efficacy, ECHCG; conditions: rated visually after about 3 weeks
Outline: (§2)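 Post-emergence foliar spray, at application rates of 1280 g/ha or less, on one-leaf-stage plants 2–3 weeks post-sowing, using aqueous WP or EC suspensions with 0.5% additive at 600 L/ha. Visual percent efficacy relative to untreated plants scored roughly 3 weeks later in the greenhouse.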

[5] = system: Kochia scoparia (KCHSC); experiment: B. Herbicidal post-emergence efficacy, KCHSC; conditions: for Post-emergence efficacy against KCHSC in %: rated visually after about 3 weeks; for Post-emergence efficacy against KCHSC: 1280 g/ha
Outline: as §2

[6] = system: Digitaria sanguinalis (DIGSA); experiment: C. Herbicidal pre-emergence efficacy, DIGSA; conditions: scored after about 3 weeks
Outline: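 Pre-emergence test: formulated compounds sprayed as aqueous suspension or emulsion with 0.5% additive at 600 l/ha onto soil covering sown seeds, at rates corresponding to 320 g/ha or less. After about 3 weeks in greenhouse, efficacy scored visually as percent versus untreated controls (100% = plants dead).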

[7] = system: Amaranthus retroflexus (AMARE); experiment: E. Herbicidal post-emergence efficacy, AMARE
Outline: (§3)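 Greenhouse weeds were treated post-emergence at the one-leaf stage, 2-3 weeks after sowing in sandy loam, with WP or EC formulations sprayed as aqueous suspension/emulsion plus 0.5% additive at 600 l/ha, at 320 g/ha or less. Efficacy was rated visually after about 3 weeks versus untreated controls (100% = dead, 0% = like control).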

[8] = system: Kochia scoparia (KCHSC); experiment: E. Herbicidal post-emergence efficacy, KCHSC
Outline: as §3

[9] = pre-emergence, dosage 1280 g/ha
[10] = 320 g/ha, scored visually after about 3 weeks vs untreated controls

Compound | Pre-emergence efficacy against ALOMY ([1]; 320 g/ha) [%] | Pre-emergence efficacy against ALOMY ([1]; 1280 g/ha) [%] | Pre-emergence efficacy against MATIN [2, 9] [%] | Pre-emergence efficacy against AMARE in % ([3]; 80 g/ha) [%] | Pre-emergence efficacy against AMARE in % ([3]; 320 g/ha) [%] | Pre-emergence efficacy against AMARE in % ([3]; 1280 g/ha) [%] | Post-emergence efficacy against ECHCG in % ([4]; 320 g/ha) [%] | Post-emergence efficacy against ECHCG in % ([4]; 1280 g/ha) [%] | Post-emergence efficacy against KCHSC in % ([5]; 80 g/ha) [%] | Post-emergence efficacy against KCHSC in % ([5]; 320 g/ha) [%] | Post-emergence efficacy against KCHSC [5] [%] | Pre-emergence efficacy against DIGSA ([6]; 80 g/ha) [%] | Pre-emergence efficacy against DIGSA ([6]; 320 g/ha) [%] | Post-emergence efficacy against AMARE in % ([7]; application rate 80 g/ha) [%] | Post-emergence efficacy against AMARE in % ([7]; application rate 320 g/ha) [%] | Post-emergence efficacy against KCHSC in % ([8]; application rate 80 g/ha) [%] | Post-emergence efficacy against KCHSC in % ([8]; application rate 320 g/ha) [%] | Post-emergence efficacy against ECHCG in % ([4]; 80 g/ha) [%] | Pre-emergence efficacy against MATIN [2, 10] [%]
O=S(=O)(CCCC(F)F)Oc1c(F)cccc1Oc1ncc(Cl)cn1 [Example I-56] | 90 | 100 | 100 | 100 | 100 | 100 | 90 | 90 | 90 | 90 | 90 | 100 | 100 | 100 | 100 | 100 | 100 | – | –
Cc1cccc(Oc2ncc(F)cn2)c1OS(=O)(=O)CCCC(F)(F)F [Example I-46] | – | 100 | 90 | 100 | 100 | 100 | 90 | 100 | – | – | 100 | 100 | 100 | – | 90 | – | 100 | 90 | –
O=S(=O)(CCC(F)(F)F)Oc1c(F)cccc1Oc1ncc(F)cn1 [Example I-47] | 100 | 100 | 100 | 100 | 100 | 100 | 100 | 100 | 100 | 100 | 100 | 100 | 100 | 100 | 100 | 100 | 100 | 90 | 100
O=S(=O)(CCCC(F)(F)F)Oc1c(F)cccc1Oc1ncc(Br)cn1 [Example I-41] | – | 100 | 100 | 100 | 100 | 100 | – | – | 90 | 90 | 90 | 100 | 100 | 100 | 100 | 100 | 100 | – | 100
O=S(=O)(CCCC(F)(F)F)Oc1c(Cl)cccc1Oc1ncc(Cl)cn1 [Example I-39] | 90 | 100 | 100 | 100 | 100 | 100 | – | – | 90 | 90 | 90 | 100 | 100 | 100 | 100 | 100 | 100 | – | 100
Cc1cccc(Oc2ncc(Cl)cn2)c1OS(=O)(=O)CC1CC(F)(F)C1 [Example I-74] | – | 90 | – | 90 | 100 | 100 | 100 | 100 | 90 | 100 | 100 | 100 | 100 | 90 | 100 | – | 80 | – | –
O=S(=O)(CCC(F)(F)F)Oc1c(F)cccc1Oc1ncc(Br)cn1 [Example I-40] | 90 | 100 | 100 | 100 | 100 | 100 | – | – | 90 | 90 | 90 | 100 | 100 | 100 | 100 | 100 | 100 | – | 100
O=S(=O)(CCC(F)(F)F)Oc1c(Cl)cccc1Oc1ncc(Cl)cn1 [Example I-38] | – | 100 | 100 | 100 | 100 | 100 | – | – | – | 90 | 90 | 100 | 100 | 100 | 100 | 100 | 100 | – | 100
